The record followed here is publication PMC8800105 (The Journal of Biological Chemistry, 2021).

The assay deals with TRPA1 (Homo sapiens, UniProt O75762). In words: whole-cell patch clamp in HEK293. Format: cell-based.
TRPA1, sequence (O75762 whole entry): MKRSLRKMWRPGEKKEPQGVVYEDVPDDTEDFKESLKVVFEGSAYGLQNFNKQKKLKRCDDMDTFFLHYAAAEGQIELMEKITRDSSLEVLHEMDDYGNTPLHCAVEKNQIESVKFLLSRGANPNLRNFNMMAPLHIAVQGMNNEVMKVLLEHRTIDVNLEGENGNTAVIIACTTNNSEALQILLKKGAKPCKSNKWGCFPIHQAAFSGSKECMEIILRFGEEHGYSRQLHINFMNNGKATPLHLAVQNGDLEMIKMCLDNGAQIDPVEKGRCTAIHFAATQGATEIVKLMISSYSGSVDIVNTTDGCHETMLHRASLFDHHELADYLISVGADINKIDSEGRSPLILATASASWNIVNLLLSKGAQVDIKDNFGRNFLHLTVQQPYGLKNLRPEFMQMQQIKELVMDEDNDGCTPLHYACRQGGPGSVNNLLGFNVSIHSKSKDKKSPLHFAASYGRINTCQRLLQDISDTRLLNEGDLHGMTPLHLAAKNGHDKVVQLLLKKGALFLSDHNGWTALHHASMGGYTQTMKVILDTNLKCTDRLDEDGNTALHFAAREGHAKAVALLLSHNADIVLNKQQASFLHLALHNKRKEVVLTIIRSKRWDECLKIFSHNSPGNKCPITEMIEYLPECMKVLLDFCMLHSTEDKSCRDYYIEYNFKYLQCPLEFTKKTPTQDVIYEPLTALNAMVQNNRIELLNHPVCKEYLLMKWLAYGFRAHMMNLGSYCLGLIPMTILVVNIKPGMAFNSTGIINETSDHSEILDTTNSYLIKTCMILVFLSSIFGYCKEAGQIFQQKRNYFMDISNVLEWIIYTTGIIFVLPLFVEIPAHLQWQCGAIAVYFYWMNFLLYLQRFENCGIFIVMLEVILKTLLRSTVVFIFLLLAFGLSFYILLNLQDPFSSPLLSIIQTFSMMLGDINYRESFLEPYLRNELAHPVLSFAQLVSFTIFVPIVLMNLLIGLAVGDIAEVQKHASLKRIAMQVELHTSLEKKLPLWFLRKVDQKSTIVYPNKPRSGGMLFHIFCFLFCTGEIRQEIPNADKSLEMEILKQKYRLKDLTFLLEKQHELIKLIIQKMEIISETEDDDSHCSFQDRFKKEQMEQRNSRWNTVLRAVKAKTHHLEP

The compound `O=[N+]([O-])c1ccc(Cl)c([N+](=O)[O-])c1` [DNCB] gave an EC50 of 42.4 ± 20.9 µM.
The value for `O=[N+]([O-])c1ccc(F)c([N+](=O)[O-])c1` [DNFB] was 2.3 ± 0.7 µM.
